Like-named read-outs stand apart in the source and are kept apart here.
Legend:
Experiment in all cases: Test C pre/postemergence
Type in all cases: in vivo
corn (Zea mays) = conditions: for Plant response rating, Corn: Preemergence
Procedure, shortened: (§1)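 Test compounds, formulated in a non-phytotoxic solvent mix with surfactant, were applied to freshly planted seeds and, at the same time, to emerged plants at 1- to 4-leaf stage (2 to 18 cm). After 12 to 14 days in the greenhouse, response was scored visually versus controls, 0 = no effect, 100 = complete control.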

[1] = system: pigweed (Amaranthus retroflexus); conditions: for pest or weed control at 16 g/ha: 16 g ai/ha
Procedure, shortened: as §1

[2] = system: Surinam grass (Brachiaria decumbens); conditions: for pest or weed control at 16 g/ha: 16 g ai/ha
Procedure, shortened: as §1

[3] = system: velvetleaf (Abutilon theophrasti); conditions: for Plant response rating, Velvetleaf: Preemergence, scale 0 to 100, 0 no effect, 100 complete control
Procedure, shortened: as §1

[4] = system: common ragweed (Ambrosia elatior); conditions: for Plant response rating, Ragweed: Preemergence, scale 0 to 100, 0 no effect, 100 complete control
Procedure, shortened: as §1

[5] = system: goosegrass (Eleusine indica); conditions: for pest or weed control at 16 g/ha: 16 g ai/ha
Procedure, shortened: as §1

[6] = Preemergence, 31 g ai/ha, scale 0 to 100, 0 no effect, 100 complete control
[7] = Preemergence, 62 g ai/ha, scale 0 to 100, 0 no effect, 100 complete control

Nc1nc(C2CC2)nc(C(=O)O)c1Cl [Compound 135, 6-amino-5-chloro-2-cyclopropyl-4-pyrimidinecarboxylic acid]
Plant response rating, Corn (corn (Zea mays); 31 g ai/ha, scale 0 to 100, 0 no effect, 100 complete control): 30
Plant response rating, Corn (corn (Zea mays); 62 g ai/ha, scale 0 to 100, 0 no effect, 100 complete control): 30
Plant response rating, Corn (corn (Zea mays); 125 g ai/ha, scale 0 to 100): 70
Corn plant response rating (crop injury, 0 = no effect, 100 = complete kill) at 16 g/ha (corn (Zea mays); Zea mays, post-emergence, Postemergence, 16 g ai/ha, read-out: Plant response rating (scale of 0 to 100), Corn): 5%
Corn plant response rating (crop injury, 0 = no effect, 100 = complete kill) at 31 g/ha (corn (Zea mays); Zea mays, post-emergence, Postemergence, 31 g ai/ha, read-out: Plant response rating (scale of 0 to 100), Corn): 10%
Corn plant response rating (crop injury, 0 = no effect, 100 = complete kill) at 62 g/ha (corn (Zea mays); Zea mays, post-emergence, Postemergence, 62 g ai/ha, read-out: Plant response rating (scale of 0 to 100), Corn): 20%
Corn plant response rating (crop injury, 0 = no effect, 100 = complete kill) at 125 g/ha (corn (Zea mays); Zea mays, post-emergence, Postemergence, 125 g ai/ha, scale 0 to 100 (0 no effect, 100 complete control), read-out: Corn plant response rating): 35%
pest or weed control at 16 g/ha ([1]; Amaranthus retroflexus, post-emergence, Postemergence, read-out: Plant response rating (scale of 0 to 100), Pigweed): 85%
pest or weed control at 31 g/ha ([1]; Amaranthus retroflexus, post-emergence, Postemergence, 31 g ai/ha, read-out: Plant response rating (scale of 0 to 100), Pigweed): 95%
pest or weed control at 62 g/ha ([1]; Amaranthus retroflexus, post-emergence, Postemergence, 62 g ai/ha, read-out: Plant response rating (scale of 0 to 100), Pigweed): 100%
pest or weed control at 125 g/ha ([1]; Amaranthus retroflexus, post-emergence, Postemergence, 125 g ai/ha, scale 0 to 100 (0 no effect, 100 complete control), read-out: Pigweed plant response rating): 100%
pest or weed control at 16 g/ha ([1]; Amaranthus retroflexus, pre-emergence, Preemergence, scale 0 to 100, 0 no effect, 100 complete control, read-out: Plant response rating, Pigweed): 70%
Plant response rating, Pigweed [1, 6]: 70
Plant response rating, Pigweed [1, 7]: 80
Plant response rating, Surinam Grass [2, 6]: 0
Plant response rating, Surinam Grass [2, 7]: 0
pest or weed control at 125 g/ha ([2]; Urochloa decumbens, post-emergence, Postemergence, 125 g ai/ha, scale 0 to 100 (0 no effect, 100 complete control), read-out: Surinam Grass plant response rating): 60%
pest or weed control at 16 g/ha ([2]; Urochloa decumbens, post-emergence, Postemergence, read-out: Plant response rating (scale of 0 to 100), Surinam Grass): 45%
pest or weed control at 31 g/ha ([2]; Urochloa decumbens, post-emergence, Postemergence, 31 g ai/ha, read-out: Plant response rating (scale of 0 to 100), Surinam Grass): 50%
pest or weed control at 62 g/ha ([2]; Urochloa decumbens, post-emergence, Postemergence, 62 g ai/ha, read-out: Plant response rating (scale of 0 to 100), Surinam Grass): 60%
pest or weed control at 16 g/ha ([2]; Urochloa decumbens, pre-emergence, Preemergence, scale 0 to 100, 0 no effect, 100 complete control, read-out: Plant response rating, Surinam Grass): 0%
pest or weed control at 16 g/ha ([3]; Abutilon theophrasti, post-emergence, Postemergence, 16 g ai/ha, read-out: Plant response rating (scale of 0 to 100), Velvetleaf): 55%
pest or weed control at 31 g/ha ([3]; Abutilon theophrasti, post-emergence, Postemergence, 31 g ai/ha, read-out: Plant response rating (scale of 0 to 100), Velvetleaf): 90%
pest or weed control at 125 g/ha ([3]; Abutilon theophrasti, post-emergence, Postemergence, 125 g ai/ha, scale 0 to 100 (0 no effect, 100 complete control), read-out: Velvetleaf plant response rating): 95%
Plant response rating, Velvetleaf ([3]; 16 g ai/ha): 60
Plant response rating, Velvetleaf ([3]; 31 g ai/ha): 85
Plant response rating, Velvetleaf ([3]; 62 g ai/ha): 90
pest or weed control at 16 g/ha ([4]; Ambrosia artemisiifolia, post-emergence, Postemergence, 16 g ai/ha, read-out: Plant response rating (scale of 0 to 100), Ragweed): 75%
pest or weed control at 31 g/ha ([4]; Ambrosia artemisiifolia, post-emergence, Postemergence, 31 g ai/ha, read-out: Plant response rating (scale of 0 to 100), Ragweed): 80%
pest or weed control at 62 g/ha ([4]; Ambrosia artemisiifolia, post-emergence, Postemergence, 62 g ai/ha, read-out: Plant response rating (scale of 0 to 100), Ragweed): 85%
pest or weed control at 125 g/ha ([4]; Ambrosia artemisiifolia, post-emergence, Postemergence, 125 g ai/ha, scale 0 to 100 (0 no effect, 100 complete control), read-out: Ragweed plant response rating): 95%
Plant response rating, Ragweed ([4]; 16 g ai/ha): 5
Plant response rating, Ragweed ([4]; 62 g ai/ha): 35
Plant response rating, Ragweed [4]: 70
pest or weed control at 16 g/ha ([5]; Eleusine indica, post-emergence, Postemergence, read-out: Plant response rating (scale of 0 to 100), Goosegrass): 5%
pest or weed control at 31 g/ha ([5]; Eleusine indica, post-emergence, Postemergence, 31 g ai/ha, read-out: Plant response rating (scale of 0 to 100), Goosegrass): 35%
pest or weed control at 62 g/ha ([5]; Eleusine indica, post-emergence, Postemergence, 62 g ai/ha, read-out: Plant response rating (scale of 0 to 100), Goosegrass): 45%
pest or weed control at 125 g/ha ([5]; Eleusine indica, post-emergence, Postemergence, 125 g ai/ha, scale 0 to 100 (0 no effect, 100 complete control), read-out: Goosegrass plant response rating): 55%
pest or weed control at 16 g/ha ([5]; Eleusine indica, pre-emergence, Preemergence, scale 0 to 100, 0 no effect, 100 complete control, read-out: Plant response rating, Goosegrass): 0%
Plant response rating, Goosegrass [5, 6]: 0
Plant response rating, Goosegrass [5, 7]: 0
Plant response rating, Goosegrass ([5]; Preemergence, 125 g ai/ha, scale 0 to 100): 40

— patent publication US8802597B2, “Herbicidal pyrimidines” (E I du Pont de Nemours and Company, priority 2003, dated 2014)
